Experiments:
[1] = test system: Guinea Pigs; test: OVA-Induced Asthma in Guinea Pigs; assay type: in vivo; conditions: 10 mg/kg b.wt, oral, 1 h before OVA challenge
Description: iv. OVA-Induced Asthma in Guinea Pigs: Pulmonary eosinophilia and airway remodelling in conjunction with altered neural control of airway tone and airway epithelial desquamation contributes to Airway Hyper-responsiveness (AHR) in asthma. For determination of eosinophil reduction, animals were sensitized with OVA on d0, d7, and d14 followed by another round (0.1% w/v) through inhalation on d19 & d20. Compounds were administered orally 1 h before OVA challenge (0.3%). BAL fluid was collected on d22 for differential count and cytokine estimation. For determination of change in respiratory parameters, animals were subjected to whole body plethysmography immediately after ova challenge.

[2] = test system: Female Balb/C mice; test: Concanavalin (Con) A induced Hepatitis in Female Balb/C mice; assay type: in vivo; conditions: 10 mg/kg b.wt, oral, 1 hour prior to Con A; blood after 24 hours
Description: i. Concanavalin (Con) A induced Hepatitis in Female Balb/C mice: Con A is often used to prepare experimental animals with high levels of cytotoxic T-lymphocytes, because these cells are involved in the development of viral infections in humans. In this model, animals were administered test compounds orally 1 hour prior to intravenous administration of Con A. Blood samples were collected after 24 hours for determination of Serum glutamic oxaloacetic transaminase (SGOT) and Serum glutamic pyruvic transaminase (SGPT) in serum. Results indicated >85% reduction in serum SGOT & SGPT upon administration of the test compound (example 69) at 10 mg/kg b.wt.

[3] = molecular target: CRAC channels (Homo sapiens (Human), UniProt Q96D31); test: In-vitro CRAC channel inhibition assay in Jurkat cells (thapsigargin-induced calcium influx); assay type: cell-based
Procedure, shortened: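 Jurkat cells given test compounds in Ca2+/Mg2+-free Hanks buffer for 15 min, then thapsigargin (1 μM final) for 15 min to deplete ER stores. IC50 from percent inhibition of thapsigargin-induced Ca2+ influx.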

[4] = test system: male DBA/1 Ola HSD mice; test: Collagen-induced arthritis in male DBA/1 Ola HSD mice; assay type: in vivo; conditions: 10 mg/kg b.wt, daily po, qd
Description: v. Collagen-induced arthritis in male DBA/1 Ola HSD mice: Collagen induced arthritis in rodent models have been widely used to illustrate and understand the development of the disease besides serving as a surrogate for validation of therapeutic targets for human rheumatoid arthritis. Mice were anesthetized with Isoflurane and given 150 μl of Bovine Type II collagen in Freund's complete adjuvant injections (day 0 and day 21). Treatment was initiated on study day 0 and continued once daily, every day (po, qd). Starting on day 18, clinical scores were given daily for each of the paws (right front, left front, right rear, left rear) and continued till the day of sacrifice (day 34). Daily administration of the test compound (Example 69) at 10 mg/kg b.wt alleviated arthritic symptoms, disease progression, and incidence by 30% compared to the control animals.

Sequence of CRAC channels (Q96D31 whole entry): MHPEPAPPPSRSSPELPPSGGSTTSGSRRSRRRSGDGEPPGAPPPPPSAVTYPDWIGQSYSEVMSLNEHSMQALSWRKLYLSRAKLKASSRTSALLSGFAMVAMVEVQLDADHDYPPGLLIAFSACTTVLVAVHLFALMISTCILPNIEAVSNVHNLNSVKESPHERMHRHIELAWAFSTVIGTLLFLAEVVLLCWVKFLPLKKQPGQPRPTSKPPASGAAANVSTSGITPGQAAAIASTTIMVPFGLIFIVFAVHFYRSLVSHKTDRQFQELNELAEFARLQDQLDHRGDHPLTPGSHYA

Cc1ncc(C(=O)Nc2ccc(-n3nc(C(F)(F)F)cc3C3CC3)cc2)c(C)n1 [Example 69, N-{4-[5-cyclopropyl-3-(trifluoromethyl)-1H-pyrazol-1-yl]phenyl}-2,4-dimethylpyrimidine-5-carboxamide]
change in respiratory parameters (whole body plethysmography) [1]: improvement in respiration
reduction in serum SGOT [2]: > 85%
reduction in serum SGPT [2]: > 85%
inhibition at 1 µM [3]: 74.6%
alleviation of arthritic symptoms, disease progression, and incidence compared to the control animals [4]: 30%
